Data as given in patent publication EP2420510B1, “Nicotinoyl peptide derivatives and cosmetic composition comprising the same” (BIO-FD&C Co., Ltd., priority 2010, dated 2013).
Residues, ends and D or L forms follow the SMILES beside them.

Key:
Human fibroblasts = test: Cytotoxicity test (MTT, cell growth effect); format: cell-based; conditions: 100 µM, 24 hours, MTT absorbance at 570 nm relative to purified water control (=100)
Procedure: (§1) 50 µl of 3-(4,5-dimethylthiazol-2-yl)-2,5-diphenyltetrazolium bromide (MTT, Sigma M5655, USA) solution (2.5 mg/mℓ) was added to the culture solution, followed by further culturing for 3 hours. Then, the culture solution was centrifuged to remove a supernatant, and 200 µl of dimethylsulfoxide (DMSO, Sigma D2650, USA) was added to each well and vortexed for 20 minutes to dissolve formazan crystals formed. 100 µl of the resulting solution was added to a 96-well plate and its absorbance was measured at 570 nm with enzyme-linked immunosorbent assay (ELISA).

iNOS = test: Anti-inflammatory activity test (iNOS activity inhibition test; nitric oxide by Griess reagent after LPS); format: cell-based, murine; conditions: Mus musculus; amount of nitric oxide produced relative to group treated with LPS only (=100); 100 µM pre-treatment 18 hours, then LPS 24 hours, Raw264.7 cells; read-out: Yields (%)
Procedure: Raw264.7 cells (murine macrophage cell line) were suspended in 10% fetal bovine serum-Dulbecco's modified Eagle's medium (FBS-DMEM) without […] (GIBCO) in […] and seed to a 24-well plate.
Then, […] of lipopolysaccharide (LPS, Sigma) was added and cultured for 24 hours. Afterwards, 100µℓ of the obtained supernatant was added to a 96-well plate and the same amount of Griess reagent (Sigma) was added, followed by light vortexing at room temperature for 10 minutes. The absorbance was measured at 570 nm.
The calibration curve was prepared using sodium nitrite as a standard, and the amount of nitric oxide produced in the culture solution was calculated. […]

[1] = tested on: Human fibroblasts (primary cell line, CCD-986sk); conditions: 100 µM, 24 hours, CCD-986sk fibroblasts, PIP ELISA absorbance at 450 nm relative to purified water control (=100)
Procedure: Human fibroblasts (primary cell line, CCD-986sk) were seeded to a plate and cultured in Dulbecco's modified Eagle's medium (DMEM) supplemented with penicillin (100 IU/ml), streptomycin (100µg/ml) and 10% fetal bovine serum (FBS) at 37 °C with 5% CO2.
The cultured cells were divided to a 48-well plate in 5×10^4 cells/well and cultured for 24 hours. […] The amount of collagen generated in the culture solution was measured with procollagen type I C-peptide (PIP) (Takara, MK101) ELISA.
After 100 µℓ of antibody-PoD conjugate solution was added to each well, 20 µℓ of the culture solution diluted to 1/5 and standard solution were added and cultured at 37 °C for 3 hours. Then, each well was washed four times with 400 µℓ of PBS. 100 µℓ of color coupler was added and cultured at room temperature for 15 minutes. Then, 100 µℓ of IN sulfuric acid was added and the absorbance was measured at 450 nm with a ELISA reader.
Collagen generation activity = (Absorbance of peptide treated group)/(Absorbance of control) X 100 [formula]

[2] = Cytotoxicity test (MTT, cell growth effect); format: cell-based; conditions: human fibroblasts, MTT absorbance at 570 nm relative to purified water control (=100)
Procedure: as §1

Structure (SMILES) | Cell Growth Effect (%) (Human fibroblasts) | activity at 100 µM (iNOS) [%] | Collagen Generation Activity (%) [1] [%] | viability at 24 h, 100 µM [2] [%]
C[C@@H](O)[C@H](NC(=O)[C@H](CCCCN)NC(=O)c1cccnc1)C(=O)N[C@H](C(=O)N[C@@H](CCCCN)C(=O)N[C@@H](CO)C(=O)O)[C@@H](C)O [Comparative Example 2, nicotinoyl-pentapeptide (lysyl-threonyl-threonyl-lysyl-serine (SEQ ID No:12))] (HELM PEPTIDE1{[O=C(c1cccnc1)[*:2]].K.T.T.K.S}$$$$V2.0) | 97.6 | – | – | –
CC(C)C[C@H](NC(=O)[C@H](Cc1ccccc1)NC(=O)CNC(=O)CNC(=O)[C@H](Cc1ccc(O)cc1)NC(=O)c1cccnc1)C(=O)O [Example 2, nicotinoyl-pentapeptide (tyrosyl-glycyl-glycyl-Phenylalanyl-leucine (SEO ID No:2))] | 101.3 | – | – | –
CSCC[C@H](NC(=O)[C@H](Cc1ccccc1)NC(=O)CNC(=O)CNC(=O)[C@H](Cc1ccc(O)cc1)NC(=O)c1cccnc1)C(=O)O [Example 1, nicotinoyl-pentapeptide (tyrosyl-glycyl-glycyl-phenylalanyl-methionine (SEQ ID No:1))] | 102.1 | – | – | –
CC(C)C[C@H](NC(=O)[C@H](Cc1ccccc1)NC(=O)CNC(=O)CNC(=O)[C@H](Cc1ccc(O)cc1)NC(=O)c1cccnc1)C(=O)N[C@@H](CCCNC(=N)N)C(=O)N[C@@H](CCCCN)C(=O)N[C@@H](Cc1ccc(O)cc1)C(=O)N1CCC[C@H]1C(=O)O [Example 3, nicotinoyl-nonapeptide (tyrosyl-glycyl-glycyl-phenylalanyl-leucyl-arginyl-lysyl-tyrosyl-proline (SEQ ID No:3))] (HELM PEPTIDE1{[O=C(c1cccnc1)[*:2]].Y.G.G.F.L.R.K.Y.P}$$$$V2.0) | 99.1 | – | – | –
O=C(O)c1cccnc1 [Nicotinic acid] | – | 98.8 | 105.2 | 102
NC(=O)c1cccnc1 [Nicotinamide] | – | 96.1 | 108.8 | 103
CC(C)C[C@H](NC(=O)[C@H](Cc1ccccc1)NC(=O)CNC(=O)CNC(=O)[C@H](Cc1ccc(O)cc1)NC(=O)c1cccnc1)C(=O)N[C@@H](CCCNC(=N)N)C(=O)N[C@@H](CCCCN)C(=O)N[C@@H](Cc1ccc(O)cc1)C(=O)N1CCC[C@H]1C(=O)N[C@@H](CCCCN)C(=O)O [Example 4, nicotinoyl-decapeptide (tyrosyl-glycyl-glycyl-phenylalanyl-leucyl-arginyl-lysyl-tyrosyl-prolyl-lycine (SEQ ID No:4))] (HELM PEPTIDE1{[O=C(c1cccnc1)[*:2]].Y.G.G.F.L.R.K.Y.P.K}$$$$V2.0) | 98.8 | – | – | –
O=C(O)CNC(=O)[C@H](CS)NC(=O)CC[C@H](NC(=O)c1cccnc1)C(=O)O [Comparative Example 1, nicotinoyl-tripeptide (γ-glutamyl-cysteinyl-glycine (SEO ID No:13))] | 98.3 | – | – | –
